# Reference: PMC4890880 (ACS infectious diseases, 2016)
# Like-named read-outs stand apart in the source and are kept apart here.
# Columns and labels:
# [1] = test system: Plasmodium berghei (Pb-Luc) exoerythrocytic-stage parasites; details: for IC50: read-out: PbLuc_IC50
# [2] = test system: HepG2-A16-CD81EGFP cells; details: for IC50: read-out: Tox_IC50, HepG2 cytotoxicity
# [3] = first series of columns, fraction of control
# [4] = sheet 2nd round, Pb-Luc exoerythrocytic stage, 10-point dose response, top concentration 10
# [5] = second series of columns (replicate), fraction of control
# [6] = sheet 2nd round, maximal inhibition in dose response
# [7] = first series, fraction of control
# [8] = second series, fraction of control
# [9] = 2nd round, maximal inhibition in dose series
smiles,measurement,setting,value
C[C@H]1CCCCO[C@@H](CN(C)S(=O)(=O)c2ccc(F)cc2)[C@@H](C)CN([C@@H](C)CO)C(=O)c2cc(N(C)C)ccc2O1 [BRD-K31467596-001-01-7],normalised signal at concentration 0.000508053 (first series),"[1]; concentration 0.000508053, first series",0.9636
same,normalised signal at concentration 0.000508053 (second series),"[1]; concentration 0.000508053, second series",1.196
same,normalised signal at concentration 0.00152416 (first series),"[1]; concentration 0.00152416, first series",0.9009
same,normalised signal at concentration 0.00152416 (second series),"[1]; concentration 0.00152416, second series",1.029
same,normalised signal at concentration 0.00457247 (first series),"[1]; concentration 0.00457247, first series",1.0859
same,normalised signal at concentration 0.00457247 (second series),"[1]; concentration 0.00457247, second series",1.054
same,normalised signal at concentration 0.0137174 (first series),"[1]; concentration 0.0137174, first series",0.8351
same,normalised signal at concentration 0.0137174 (second series),"[1]; concentration 0.0137174, second series",0.885
same,normalised signal at concentration 0.0411523 (first series),"[1]; concentration 0.0411523, first series",0.8724
same,normalised signal at concentration 0.0411523 (second series),"[1]; concentration 0.0411523, second series",1.048
same,normalised signal at concentration 0.123457 (first series),"[1]; concentration 0.123457, first series",0.8924
same,normalised signal at concentration 0.123457 (second series),"[1]; concentration 0.123457, second series",0.8988
same,normalised signal at concentration 0.37037 (first series),"[1]; concentration 0.37037, first series",0.8075
same,normalised signal at concentration 0.37037 (second series),"[1]; concentration 0.37037, second series",0.9035
same,normalised signal at concentration 1.11111 (first series),"[1]; concentration 1.11111, first series",1.0319
same,normalised signal at concentration 1.11111 (second series),"[1]; concentration 1.11111, second series",1.046
same,normalised signal at concentration 3.33333 (first series),"[1]; concentration 3.33333, first series",0.9413
same,normalised signal at concentration 3.33333 (second series),"[1]; concentration 3.33333, second series",0.9885
same,normalised signal at concentration 10 (first series),"[1]; concentration 10, first series of dose columns",0.7997
same,normalised signal at concentration 10 (second series),"[1]; concentration 10, second series of dose columns",0.6635
same,IC50,"[1]; sheet ""2nd round"", Broad compounds, dose response top concentration 10",> 10 µM
same,PbLuc_max_inhibition (%),"[1]; sheet ""2nd round""",34%
same,IC50,"[2]; sheet ""2nd round""",> 10 µM
same,Tox_max_inhibition (%),"[2]; sheet ""2nd round""",19%
Cc1noc(C)c1S(=O)(=O)N(C)C[C@@H]1OCCCC[C@@H](C)Oc2ccc(N(C)C)cc2C(=O)N([C@@H](C)CO)C[C@H]1C [BRD-K31367750-001-01-1],normalized signal at concentration 0.000508053,[1]; [3],1.082
same,normalized signal at concentration 0.00152416,[1]; [3],1.078
same,normalized signal at concentration 0.00457247,[1]; [3],1.115
same,normalized signal at concentration 0.0137174,[1]; [3],1.059
same,normalized signal at concentration 0.0411523,[1]; [3],1.054
same,normalized signal at concentration 0.123457,[1]; [3],1.1
same,normalized signal at concentration 0.37037,[1]; [3],1.064
same,normalized signal at concentration 1.11111,[1]; [3],0.9576
same,normalized signal at concentration 3.33333,[1]; [3],1.005
same,normalized signal at concentration 10,[1]; [3],1.057
same,IC50,[1]; [4],> 10 µM
same,normalized signal at concentration 0.000508053,[1]; [5],1.02
same,normalized signal at concentration 0.00152416,[1]; [5],0.9419
same,normalized signal at concentration 0.00457247,[1]; [5],0.9058
same,normalized signal at concentration 0.0137174,[1]; [5],0.8746
same,normalized signal at concentration 0.0411523,[1]; [5],0.9045
same,normalized signal at concentration 0.123457,[1]; [5],0.9742
same,normalized signal at concentration 0.37037,[1]; [5],0.91
same,normalized signal at concentration 1.11111,[1]; [5],0.8518
same,normalized signal at concentration 3.33333,[1]; [5],0.8811
same,normalized signal at concentration 10,[1]; [5],0.9567
same,PbLuc_max_inhibition (%),[1]; [6],15%
same,IC50,[2]; sheet 2nd round,> 10 µM
same,Tox_max_inhibition (%),[2]; [6],10%
C[C@H]1CN([C@@H](C)CO)C(=O)c2cc(C#Cc3ccccc3)cnc2O[C@H]1CN(C)C(=O)c1ccccc1 [BRD-K12503654-001-01-1],normalized signal at concentration 10,"[1]; first series of dose-response columns, fraction of control",0.56
same,normalized signal at concentration 0.000508053,[1]; [7],1.00
same,normalized signal at concentration 0.00152416,[1]; [7],1.04
same,normalized signal at concentration 0.00457247,[1]; [7],1.07
same,normalized signal at concentration 0.0137174,[1]; [7],1.02
same,normalized signal at concentration 0.0411523,[1]; [7],1.04
same,normalized signal at concentration 0.123457,[1]; [7],0.97
same,normalized signal at concentration 0.37037,[1]; [7],0.92
same,normalized signal at concentration 1.11111,[1]; [7],1.13
same,normalized signal at concentration 3.33333,[1]; [7],0.83
same,IC50,"[1]; sheet 2nd round, Broad compounds, dose response",> 10 µM
same,normalized signal at concentration 10,"[1]; second series of dose-response columns, fraction of control",0.51
same,normalized signal at concentration 0.000508053,[1]; [8],1.07
same,normalized signal at concentration 0.00152416,[1]; [8],0.85
same,normalized signal at concentration 0.00457247,[1]; [8],1.01
same,normalized signal at concentration 0.0137174,[1]; [8],0.97
same,normalized signal at concentration 0.0411523,[1]; [8],1.21
same,normalized signal at concentration 0.123457,[1]; [8],1.03
same,normalized signal at concentration 0.37037,[1]; [8],1.11
same,normalized signal at concentration 1.11111,[1]; [8],0.90
same,normalized signal at concentration 3.33333,[1]; [8],0.91
same,PbLuc_max_inhibition (%),[1]; [6],49%
same,IC50,[2]; sheet 2nd round,> 10 µM
same,Tox_max_inhibition (%),[2]; [6],5.33%
O=C(O)C[C@H]1CC[C@@H]2[C@H](COC[C@@H](O)CN2S(=O)(=O)c2ccc(Oc3ccccc3)cc2)O1 [BRD-K61788733-001-01-3],normalized signal at concentration 0.000508053,[1]; [3],0.8641
same,normalized signal at concentration 0.00152416,[1]; [3],0.8788
same,normalized signal at concentration 0.00457247,[1]; [3],0.8741
same,normalized signal at concentration 0.0137174,[1]; [3],0.9455
same,normalized signal at concentration 0.0411523,[1]; [3],0.9154
same,normalized signal at concentration 0.123457,[1]; [3],0.9561
same,normalized signal at concentration 0.37037,[1]; [3],0.927
same,normalized signal at concentration 1.11111,[1]; [3],1.099
same,normalized signal at concentration 3.33333,[1]; [3],1.256
same,normalized signal at concentration 10,[1]; [3],1.046
same,IC50,[1]; [4],> 10 µM
same,normalized signal at concentration 0.000508053,[1]; [5],1.03
same,normalized signal at concentration 0.00152416,[1]; [5],0.992
same,normalized signal at concentration 0.00457247,[1]; [5],0.8804
same,normalized signal at concentration 0.0137174,[1]; [5],0.7616
same,normalized signal at concentration 0.0411523,[1]; [5],1.066
same,normalized signal at concentration 0.123457,[1]; [5],0.77
same,normalized signal at concentration 0.37037,[1]; [5],0.8648
same,normalized signal at concentration 1.11111,[1]; [5],0.993
same,normalized signal at concentration 3.33333,[1]; [5],1.071
same,normalized signal at concentration 10,[1]; [5],1.076
same,PbLuc_max_inhibition (%),[1]; [6],24%
same,IC50,[2]; sheet 2nd round,> 10 µM
same,Tox_max_inhibition (%),[2]; [6],4.62%
C/C=C/c1ccc([C@H]2[C@@H](CO)N(CC3CCCCC3)[C@@H]2CNC(C)C)cc1 [BRD-K19633528-001-01-3],PbLuc_max_inhibition (%),[1]; [9],58%
same,normalized signal at 0.000508053 (first series),"[1]; concentration 0.000508053, first replicate series, fraction of control",1
same,normalized signal at 0.000508053 (second series),"[1]; concentration 0.000508053, second replicate series, fraction of control",0.834
same,normalized signal at 0.00152416 (first series),"[1]; concentration 0.00152416, first replicate series, fraction of control",0.9222
same,normalized signal at 0.00152416 (second series),"[1]; concentration 0.00152416, second replicate series, fraction of control",0.7558
same,normalized signal at 0.00457247 (first series),"[1]; concentration 0.00457247, first replicate series, fraction of control",0.9507
same,normalized signal at 0.00457247 (second series),"[1]; concentration 0.00457247, second replicate series, fraction of control",1.046
same,normalized signal at 0.0137174 (first series),"[1]; concentration 0.0137174, first replicate series, fraction of control",0.9718
same,normalized signal at 0.0137174 (second series),"[1]; concentration 0.0137174, second replicate series, fraction of control",0.826
same,normalized signal at 0.0411523 (first series),"[1]; concentration 0.0411523, first replicate series, fraction of control",1.123
same,normalized signal at 0.0411523 (second series),"[1]; concentration 0.0411523, second replicate series, fraction of control",1.151
same,normalized signal at 0.123457 (first series),"[1]; concentration 0.123457, first replicate series, fraction of control",1.141
same,normalized signal at 0.123457 (second series),"[1]; concentration 0.123457, second replicate series, fraction of control",0.8556
same,normalized signal at 0.37037 (first series),"[1]; concentration 0.37037, first replicate series, fraction of control",1.177
same,normalized signal at 0.37037 (second series),"[1]; concentration 0.37037, second replicate series, fraction of control",1.086
same,normalized signal at 1.11111 (first series),"[1]; concentration 1.11111, first replicate series, fraction of control",1.183
same,normalized signal at 1.11111 (second series),"[1]; concentration 1.11111, second replicate series, fraction of control",0.9808
same,normalized signal at 3.33333 (first series),"[1]; concentration 3.33333, first replicate series, fraction of control",1.3301
same,normalized signal at 3.33333 (second series),"[1]; concentration 3.33333, second replicate series, fraction of control",0.9519
same,normalized signal at 10 (first series),"[1]; concentration 10, first replicate series, fraction of control",0.5856
same,normalized signal at 10 (second series),"[1]; concentration 10, second replicate series, fraction of control",0.4223
same,IC50,"[1]; 2nd round, Broad DOS compounds, unit not printed (dose series head 10 to 0.000508053)",> 10 µM
same,Tox_max_inhibition (%),[2]; [9],16%
same,IC50,"[2]; 2nd round, unit inferred",> 10 µM
